Measured values as given in PubChem BioAssay (NCI).
Where “and” joins values, the source holds several entries; their conditions need not be identical. Identical values can stand only once.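 Grown in 96-well plates, cells were treated for 48 hours with each compound at five concentrations. Insufficient inhibition: endpoint recorded as highest concentration tested. GI50 = concentration required for 50% inhibition of growth. The concentration for full growth arrest is given as TGI.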

Experiments:
Assay in all cases: NCI tumour cell line growth inhibition, 48 h
[1] = test system: P388/ADR leukemia
[2] = test system: P388 leukemia
[3] = test system: SN12K1 renal
[4] = test system: RXF-631 renal

SMILES: COc1cccc2c1C(=O)c1c(O)c3c(c(O)c1C2=O)C[C@](O)(C(=O)CO)CC3OC1CC(N)C(OC2CCCCO2)C(C)O1 (stereo not given in full)
- TGI [1]: > 100000 nM
- TGI [2]: 233 nM
- TGI [3]: 879 nM

SMILES: O=C1/C(=C/c2ccc(Cl)c(Cl)c2)CN(C(=O)CCN2CCOCC2)C/C1=C\c1ccc(Cl)c(Cl)c1
- GI50 [4]: 1990 nM
- TGI [4]: 8250 nM and 5870 nM
